According to ChEMBL document CHEMBL5375973, “Design and Synthesis of Novel Near-Infrared Fluorescence Probes Based on an Open Conformation of a Cytochrome P450 1B1 Complex for Molecular Imaging of Colorectal Tumors” (J Med Chem, 2023):

Experiments:
[1] = molecular target: T1, Cytochrome P450 1A2 (Homo sapiens, UniProt P05177); test: Inhibition of recombinant CYP1A2 (unknown origin) using 7-ethoxyresorufin as substrate preincubated for 5 mins followed by NADPH addition incubated for 50 mins by EROD assay; type: ADME
T1 sequence (P05177 whole entry): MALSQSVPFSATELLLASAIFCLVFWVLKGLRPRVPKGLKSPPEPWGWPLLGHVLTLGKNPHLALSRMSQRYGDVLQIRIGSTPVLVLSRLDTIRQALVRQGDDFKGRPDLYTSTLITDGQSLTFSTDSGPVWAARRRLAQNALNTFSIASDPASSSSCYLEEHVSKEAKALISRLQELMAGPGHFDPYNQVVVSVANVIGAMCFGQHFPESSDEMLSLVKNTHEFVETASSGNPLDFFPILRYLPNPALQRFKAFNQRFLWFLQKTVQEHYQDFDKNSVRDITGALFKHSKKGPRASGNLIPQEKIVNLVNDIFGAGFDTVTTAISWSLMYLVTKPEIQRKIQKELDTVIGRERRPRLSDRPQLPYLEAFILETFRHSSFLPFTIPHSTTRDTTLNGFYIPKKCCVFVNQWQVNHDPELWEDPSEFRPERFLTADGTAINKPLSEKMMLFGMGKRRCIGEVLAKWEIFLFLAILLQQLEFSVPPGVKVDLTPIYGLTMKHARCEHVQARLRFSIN

[2] = system: HFF-1; test: Cytotoxicity against human HFF-1 cells at 1 to 10 uM incubated for 24 hrs by MTT assay; type: toxicity, cell-based; details: hff-1, 24 h, dose 1-10 µM
[3] = Stability of the compound assessed as drug degradation observed after 24 hrs by HPLC analysis; type: physicochemical
[4] = system: HCT-15; test: Cytotoxicity against human HCT-15 cells assessed as cell viability at 10 uM incubated for 24 hrs by MTT assay; type: functional; details: read-out: Activity
[5] = molecular target: T2, Cytochrome P450 1B1 (Homo sapiens, UniProt Q16678); test: Binding affinity to CYP1B1 in human HCT-15 cells assessed as apparent dissociation constant incubated for 1 hr by flow cytometry analysis; type: ADME, cell-based; details: read-out: Kd(app)
T2 sequence (Q16678 whole entry): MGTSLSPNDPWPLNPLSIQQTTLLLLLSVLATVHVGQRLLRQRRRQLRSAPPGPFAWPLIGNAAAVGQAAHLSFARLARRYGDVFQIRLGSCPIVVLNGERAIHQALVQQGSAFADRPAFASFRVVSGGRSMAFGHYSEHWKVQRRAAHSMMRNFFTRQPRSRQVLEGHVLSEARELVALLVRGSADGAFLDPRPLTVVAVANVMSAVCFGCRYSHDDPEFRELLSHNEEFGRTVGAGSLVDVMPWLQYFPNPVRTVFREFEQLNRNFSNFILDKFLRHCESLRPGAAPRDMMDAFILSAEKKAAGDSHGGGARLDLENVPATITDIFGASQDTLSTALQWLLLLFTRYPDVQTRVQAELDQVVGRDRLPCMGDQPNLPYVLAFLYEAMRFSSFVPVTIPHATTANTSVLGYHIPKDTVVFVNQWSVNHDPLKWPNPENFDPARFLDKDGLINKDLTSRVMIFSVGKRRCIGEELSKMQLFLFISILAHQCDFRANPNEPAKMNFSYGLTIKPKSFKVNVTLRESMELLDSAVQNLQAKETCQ

[6] = molecular target: T2, Cytochrome P450 1B1; test: Inhibition of recombinant CYP1B1 (unknown origin) using 7-ethoxyresorufin as substrate preincubated for 5 mins followed by NADPH addition incubated for 35 mins by EROD assay; type: ADME

COc1ccc(OC)c2c1c(OC)cc1c(=O)cc(-c3cc(F)cc(OCCOCCN)c3)oc12
IC50 [1]: 525 nM

COc1ccc(OC)c2c1c(OC)cc1c(=O)cc(-c3cc(F)cc(NC(=O)CCCCN)c3)oc12
IC50 [1]: 514 nM

CCN1/C(=C/C=C/C=C/C2=[N+](CCCCCC(=O)NCCOCCOCCOCC(=O)Nc3cc(F)cc(-c4cc(=O)c5cc(OC)c6c(OC)ccc(OC)c6c5o4)c3)c3ccc4c(S(=O)(=O)[O-])cc(S(=O)(=O)O)cc4c3C2(C)C)C(C)(C)c2c1ccc1c(S(=O)(=O)O)cc(S(=O)(=O)O)cc21
Activity [2]: Non-Toxic
Stability [3]: Stable
viability at 10 µM [4]: > 80%
Kd [5]: 168 nM

COc1ccc(OC)c2c1c(OC)cc1c(=O)cc(-c3cc(F)cc(NC(=O)COCCOCCOCCN)c3)oc12
IC50 [1]: > 2000 nM

COc1ccc(OC)c2c1c(OC)cc1c(=O)cc(-c3ccc(N)c(F)c3)oc12
IC50 [6]: 2.47 nM

COc1ccc(OC)c2c1c(OC)cc1c(=O)cc(-c3cc(F)cc(NC(=O)COCCN)c3)oc12
IC50 [1]: 1600 nM

COc1ccc(OC)c2c1c(OC)cc1c(=O)cc(-c3cc(O)cc(F)c3)oc12
IC50 [6]: 95 nM

COc1ccc(OC)c2c1c(OC)cc1c(=O)cc(-c3cc(F)cc(OCCOCCOCCOCCN)c3)oc12
IC50 [1]: > 2000 nM
